# Tested on: human ABCA1 promoter
# Experiment: ABCA1 promoter test (luciferase reporter in stably transfected THP1 cell line)
# Type: cell-based
# Conditions: Homo sapiens, THP-1; ABCA1 reporter cell line (THP1, PMA-differentiated), 24 h incubation, luciferase chemiluminescence; read-out: E50 ABCA1
# Experimental: The potency of substances which activate expression of the human ABCA1 gene via its promoter is analyzed by using a stably transfected THP1 cell line (human monocyte cell line) which is referred to herein as ABCA1 reporter cell line. It contains a fragment, 3.2 kb in size and stably integrated into the genome, of the human ABCA1 promoter in front of a luciferase reporter element. Expression of the luciferase reporter gene is only low without addition of an ABCA1 expression activator. The substances stimulating ABCA1 expression bring about, via activation of the ABCA1 promoter, an enhanced expression of the luciferase reporter gene. The luciferase which is formed can be detected via an appropriate substrate by means of chemiluminescence.
# Construction of the Cell Line
# The ABCA1 reporter line was prepared as follows: firstly the neomycin resistance gene (Acc. No.: AJ000156) was introduced into the luciferase reporter plasmid pLG3basic (#1751, Promega) 3′ below the luciferase reporter element. Subsequently, an ABCA1 promoter fragment, 3.2 kb in size and amplified from human genomic DNA (#6550-1, Clontech) by the polymerase chain reaction, was cloned in 5′ above the luciferase reporter element. The reporter plasmid produced in this way was called pGL3BN-ABCA1P. Luciferase expression in this plasmid is controlled by the ABCA1 promoter. Cloning and sequencing of the construct took place in analogy to the description in Sambrook J et al. (Molecular cloning, Cold Spring Harbor Laboratory Press, 1989). For stable transfection into THP1 cells, firstly pGL3BN-ABCA1P was linearized with a restriction endonuclease and then introduced into the THP1 cells as stated in Ausubel, F. M. et al. (Current protocols in molecular biology, Vol. 1-3, John Wiley & Sons, Inc., 1995).
# The activity of ABCA1 expression activators is determined in a 3-day test which is described below:
# The ABCA1 reporter cell line comprises suspension cells. These are cultured until the concentration is 0.5×10^6 cells/ml in RPMI medium (#52400-025, Invitrogen) which is mixed with the following additions: 10% FCS (fetal calf serum; #16000-044, invitrogen), 0.5 mg/ml Geneticin (#10131-019, invitrogen) and 1% penicillin-streptomycin solution (#15140-122, invitrogen). The culturing takes place in standard cell culture flasks (#353112, Becton Dickinson) in a cell culture incubator at 37° C. in the presence of 5% CO2.
# For the ABCA1 promoter test, the suspension cells are centrifuged at 1200 rpm in 50 ml tubes. The supernatant is aspirated off, and the pellet is resuspended in 15 ml of RPMI medium and counted in a cell counter. After dilution to 175 000 cells/ml, 0.1 μg/ml PMA (phorbol 12-myristate 13-acetate, #8139-5MG, Sigma) is added in order to induce differentiation of the monocytic THP1 suspension cells into adherent macrophages. 35 000 cells in each well are seeded in a 96-well microtiter plate with clear plastic base (#3610, Corning Costar). The plates are incubated in a cell culture incubator at 37° C. and 5% CO2 for 24 h.
# The ABCA1 expression activators to be tested are dissolved in a concentration of 10 mM in DMSO. This stock solution is diluted in the RPMI medium (mixed with 0.1 μg/ml PMA) described above. Test substances are tested in 11 different concentrations in the range from […] to 330 pM. The medium of the ABCA1 reporter cell line seeded on day 1 is completely removed by aspiration and the diluted test substances are immediately added to the cells. The dilution and addition of the substances takes place with a pipetting robot (Beckman FX). The final volume of the test substances diluted in medium is 100 μl per well of a 96-well microtiter plate. The DMSO concentration in the test is less than 0.1% v/v in order to avoid cytotoxic effects of the solvent.
# The test plates are incubated in an incubator at 37° C. and 5% CO2 for 24 h.
# The ABCA1 reporter cells treated with the test substances are removed from the incubator and the medium is aspirated off. […]
row,EC50,Compound
1,2570 nM,"Cc1ccc(N2CCN(C(=O)[C@@H]3CN(S(=O)(=O)c4cc(Br)c(Br)s4)C[C@H]3c3ccccc3)CC2)c(C)c1 (racemic) [Example 37, [1-(4,5-Dibromothiophene-2-sulfonyl)-3,4-trans-4-phenylpyrrolidin-3-yl]-[4-(2,4-dimethylphenyl)piperazin-1-yl]methanone]"
2,2660 nM,"Cc1ccc(N2CCN(C(=O)[C@@H]3CN(S(=O)(=O)c4ccc(Cl)s4)C[C@H]3c3ccccc3)CC2)c(C)c1 (racemic) [Example 38, [1-(5-Chlorothiophene-2-sulfonyl)-3,4-trans-4-phenylpyrrolidin-3-yl]-[4-(2,4-dimethylphenyl)piperazin-1-yl]methanone]"
3,3730 nM,Cc1ccc(N2CCN(C(=O)[C@@H]3CN(S(=O)(=O)c4cc(Cl)c(Cl)s4)C[C@H]3c3ccccc3)CC2)c(C)c1 (racemic) [Example 39]
4,18800 nM,"Cc1ccc(N2CCN(C(=O)[C@@H]3CN(S(=O)(=O)c4cccs4)C[C@H]3c3ccccc3)CC2)cc1C (racemic) [Example 42, [4-(3,4-Dimethylphenyl)piperazin-1-yl]-[3,4-trans-4-phenyl-1-(thiophene-2-sulfonyl)pyrrolidin-3-yl)methanone]"
5,4080 nM,"Cc1ccc(N2CCN(C(=O)[C@@H]3CN(S(=O)(=O)c4cc(Br)c(Br)s4)C[C@H]3c3ccccc3)CC2)cc1C (racemic) [Example 43, [1-(4,5-Dibromothiophene-2-sulfonyl)-3,4-trans-4-phenylpyrrolidin-3-yl]-[4-(3,4-dimethylphenyl)piperazin-1-yl]methanone]"
6,15100 nM,"Cc1ccc(N2CCN(C(=O)[C@@H]3CN(S(=O)(=O)c4ccc(Cl)s4)C[C@H]3c3ccccc3)CC2)cc1C (racemic) [Example 44, [1-(5-Chlorothiophene-2-sulfonyl)-3,4-trans-4-phenylpyrrolidin-3-yl]-[4-(3,4-dimethylphenyl)piperazin-1-yl]methanone]"
7,4620 nM,Cc1ccc(N2CCN(C(=O)[C@@H]3CN(S(=O)(=O)c4cc(Cl)c(Cl)s4)C[C@H]3c3ccccc3)CC2)cc1C (racemic) [Example 45]
8,706 nM,"Cc1ccc(C)c(N2CCN(C(=O)[C@@H]3CN(S(=O)(=O)c4ccc(Cl)s4)C[C@H]3c3ccccc3)CC2)c1 (racemic) [Example 48, [1-(5-Chlorothiophen-2-sulfonyl)-3,4-trans-4-phenylpyrrolidin-3-yl]-[4-(2,5-dimethylphenyl)piperazin-1-yl]methanone]"
9,1950 nM,"Cc1ccc(C)c(N2CCN(C(=O)[C@@H]3CN(S(=O)(=O)c4cc(Cl)c(Cl)s4)C[C@H]3c3ccccc3)CC2)c1 (racemic) [Example 49, [1-(4,5-Dichlorothiophene-2-sulfonyl)-3,4-trans-4-phenylpyrrolidin-3-yl]-[4-(2,5-dimethylphenyl)piperazin-1-yl]methanone]"
10,7340 nM,"COC(=O)c1cc(C)c(S(=O)(=O)N2C[C@@H](C(=O)N3CCN(c4cc(C)ccc4C)CC3)[C@H](c3ccccc3)C2)s1 (racemic) [Example 50, Methyl 5-{3,4-trans-3-[4-(2,5-dimethylphenyl)piperazine-1-carbonyl]-4-phenylpyrrolidine-1-sulfonyl}-4-methylthiophene-2-carboxylate]"
11,2770 nM,"Cc1ccc(C)c(N2CCN(C(=O)[C@@H]3CN(S(=O)(=O)c4sc5ccc(Cl)cc5c4C)C[C@H]3c3ccccc3)CC2)c1 (racemic) [Example 51, [1-(5-Chloro-3-methylbenzo[b]thiophene-2-sulfonyl)-3,4-trans-4-phenyl-pyrrolidin-3-yl]-[4-(2,5-dimethylphenyl)piperazin-1-yl]methanone]"
12,3270 nM,Cc1cccc(N2CCN(C(=O)[C@@H]3CN(S(=O)(=O)c4cccs4)C[C@H]3c3ccccc3)CC2)c1C (racemic) [Example 52]
13,5760 nM,"Cc1cccc(N2CCN(C(=O)[C@@H]3CN(S(=O)(=O)c4cc(Br)c(Br)s4)C[C@H]3c3ccccc3)CC2)c1C (racemic) [Example 53, [1-(4,5-Dibromothiophene-2-sulfonyl)-3,4-trans-4-phenylpyrrolidin-3-yl]-[4-(2,3-dimethylphenyl)piperazin-1-yl]methanone]"
14,4630 nM,"Cc1cccc(N2CCN(C(=O)[C@@H]3CN(S(=O)(=O)c4ccc(Cl)s4)C[C@H]3c3ccccc3)CC2)c1C (racemic) [Example 54, [1-(5-Chlorothiophene-2-sulfonyl)-3,4-trans-4-phenylpyrrolidin-3-yl]-[4-(2,3-dimethylphenyl)piperazin-1-yl]methanone]"
15,826 nM,"Cc1cccc(N2CCN(C(=O)[C@@H]3CN(S(=O)(=O)c4cc(Cl)c(Cl)s4)C[C@H]3c3ccccc3)CC2)c1C (racemic) [Example 55, [1-(4,5-Dichlorothiophene-2-sulfonyl)-3,4-trans-4-phenylpyrrolidin-3-yl]-[4-(2,3-dimethylphenyl)piperazin-1-yl]methanone]"
16,1160 nM,COc1ccc(N2CCN(C(=O)[C@@H]3CN(S(=O)(=O)c4cc(Br)c(Br)s4)C[C@H]3c3ccccc3)CC2)cc1 (racemic) [Example 59]
17,6680 nM,"COc1ccc(N2CCN(C(=O)[C@@H]3CN(S(=O)(=O)c4ccc(Cl)s4)C[C@H]3c3ccccc3)CC2)cc1 (racemic) [Example 60, [1-(5-Chlorothiophene-2-sulfonyl)-3,4-trans-4-phenylpyrrolidin-3-yl]-[4-(4-methoxyphenyl)piperazin-1-yl]methanone]"
18,2610 nM,"COc1ccc(N2CCN(C(=O)[C@@H]3CN(S(=O)(=O)c4cc(Cl)c(Cl)s4)C[C@H]3c3ccccc3)CC2)cc1 (racemic) [Example 61, [1-(4,5-Dichlorothiophene-2-sulfonyl)-3,4-trans-4-phenylpyrrolidin-3-yl]-[4-(4-methoxyphenyl)piperazin-1-yl]methanone]"
19,3160 nM,"O=C([C@@H]1CN(S(=O)(=O)c2cc(Br)c(Br)s2)C[C@H]1c1ccccc1)N1CCN(c2ccccc2)CC1 (racemic) [Example 64, [1-(4,5-Dibromothiophene-2-sulfonyl)-3,4-trans-4-phenylpyrrolidin-3-yl]-(4-phenylpiperazin-1-yl)methanone]"
20,2190 nM,"Cc1ccc(C)c(N2CCN(C(=O)[C@@H]3CN(S(=O)(=O)c4cccs4)C[C@H]3c3ccccc3)CC2)c1 (racemic) [Example 67, [4-(2,5-Dimethylphenyl)piperazin-1-yl]-[3,4-trans-4-phenyl-1-(thiophene-2-sulfonyl)pyrrolidin-3-yl]methanone]"
21,330 nM,"COc1cccc(S(=O)(=O)N2C[C@@H](C(=O)N3CCN(c4cc(C)ccc4C)CC3)[C@H](c3ccccc3)C2)c1 (racemic) [Example 69, [4-(2,5-Dimethylphenyl)piperazin-1-yl]-[1-(3-methoxybenzenesulfonyl)-3,4-trans-4-phenylpyrrolidin-3-yl]methanone]"
22,381 nM,"Cc1ccc(C)c(N2CCN(C(=O)[C@@H]3CN(S(=O)(=O)c4c(C)noc4C)C[C@H]3c3ccccc3)CC2)c1 (racemic) [Example 71, [1-(3,5-Dimethylisoxazole-4-sulfonyl)-3,4-trans-4-phenylpyrrolidin-3-yl]-[4-(2,5-dimethylphenyl)piperazin-1-yl]methanone]"
23,459 nM,COc1cccc(S(=O)(=O)N2C[C@@H](C(=O)N3CCN(c4c(C)cccc4C)CC3)[C@H](c3ccccc3)C2)c1 (racemic) [Example 86]

# — US7468369B2, “Sulfonyl pyrrolidines, method for producing the same and their use as drugs” (Sanofi-Aventis, priority 2005, dated 2008)
